Data from patent publication US5334715A, “1-piperazinyl-2-butenes and -2-butynes” (Hoechst-Roussel Pharmaceuticals Inc., priority 1993, dated 1994).
Structures can show the parent of a compound that is named as a salt. Where two headings read alike, the source gives them in different places.

Test system: apomorphine-induced climbing
Assay: climbing mice assay: block of apomorphine-induced climbing (antipsychotic activity)
Assay type: in vivo, CK-1 male mice
Conditions: Mus musculus, ip, read-out: Antipsychotic Activity ED50
Description: The subject CK-1 male mice (23-27 grams) are […] under standard laboratory conditions. The mice are individually placed in wire mesh stick cages (4"×4"10") and are allowed one hour for adaptation and exploration of the new environment.
For evaluation of climbing, 3 readings are taken at 10, 20, and 30 minutes after apomorphine administration according to the following scale:
2 paws on wall (rearing)
4 paws on the wall (full climbing)
Mice consistently climbing before the injections of apomorphine will be discarded.
With full-developed apomorphine climbing, the animals are hanging onto the cage walls, rather motionless, over long periods of time. By contrast, climbs due to mere motor stimulation usually only last a few seconds.
The climbing scores are individually totaled (maximal score: 6 per mouse over 3 readings) and the total score of the control group (vehicle intraperitoneally-apomorphine subcutaneously) is set 100%.

[1] = mice, intraperitoneal 30 minutes prior to apomorphine 1.5 mg/kg s.c., climbing readings at 10, 20, 30 minutes, linear regression

SMILES	ED50 [1]	ED50
COc1ccccc1N1CCN(C/C=C\CN2C(=O)CSC2=O)CC1 [Z-1-(3-Thiazolidine-2,4-dione)-4-[4-(2-methoxyphenyl)-1-piperazinyl]-2-butene dihydrochloride]	19.8 mg/kg	–
CCN1CCCC1CNC(=O)c1cc(S(N)(=O)=O)ccc1OC (stereo not drawn) [Sulpiride, reference compound]	4.5 mg/kg	–
O=C(CCCN1CCC(O)(c2ccc(Cl)cc2)CC1)c1ccc(F)cc1 [Haloperidol, reference compound]	–	0.11 mg/kg
COc1ccccc1N1CCN(C/C=C/CN2C(=O)c3ccccc3C2=O)CC1 [E-1-(N-Phthalimido)-4-[4-(2-methoxyphenyl)-1-piperazinyl]-2-butene hydrochloride hemihydrate]	7.3 mg/kg	–
COc1ccccc1N1CCN(C/C=C\CN2C(=O)c3ccccc3C2=O)CC1 [Z-1-(N-Phthalimido)-4-[4-(2-methoxyphenyl)-4-piperazinyl)]-2-butene dihydrochloride]	10.3 mg/kg	–
COc1ccccc1N1CCN(C/C=C\CN2C(=O)c3ccc(Cl)cc3C2=O)CC1 [Z-1-N-(4-Chlorophthalimido)-4-[4-(2-methoxyphenyl)-1-piperazinyl]-2-butene dihydrochloride hemihydrate]	15.4 mg/kg	–
